Experimental data from paper PMC4981717, “Lcp1 Is a Phosphotransferase Responsible for Ligating Arabinogalactan to Peptidoglycan in Mycobacterium tuberculosis” (mBio, 2016).
Several values for one entry are separate records, joined by “and”; a condition that tells them apart may be missing. Identical values can stand only once. Entries after “also recorded” stand apart in the source; their conditions may differ.

Molecular target: ^MtbLcp1 (Mycobacterium tuberculosis, UniProt P96872)
Assay: Intrinsic tryptophan fluorescence (ITF) ligand binding of linker unit analogues to recombinant ^MtbLcp1
Conditions: for Bmax: ITF saturation binding, change in fluorescence emission at λ = 341 nm; for Kd: ITF, single-site saturation model, 25°C, 0.026 µM ^MtbLcp1, λ = 341 nm, read-out: equilibrium dissociation constant, KD
Method: Intrinsic tryptophan fluorescence (ITF) ligand binding experiments of ^MtbLcp1 with saccharide ligands were conducted on a Hitachi F7000 fluorescence spectrophotometer with the temperature thermostatically regulated to 25°C. ^MtbLcp1 was diluted to 0.026 µM with dialysis buffer, and fluorescence spectra were measured at an excitation wavelength of 280 nm and emission wavelength of 300 to 400 nm with an excitation and emission slit width of 5 nm using a 500-µl crystal cuvette. ITF maximum (Femission^max) was recorded at λ = 341 nm, providing a basal Femission coordinate for the collection of subsequent ITF data. Increasing concentrations of ligands representing the linker unit (compounds 1 to 4) were added to the cuvette. The change in fluorescence emission (ΔFemission) was calculated by subtracting Femission (recorded 2 min after each ligand addition) from Femission^max. Changes of background fluorescence observed upon addition of equivalent volumes of dialysis buffer (the solvent in which compounds 1 to 4 were dissolved) were subtracted from the overall change in fluorescence, and the data were then plotted against ligand concentration, [L] (3 independent biological experiments). A plot of ΔFemission at λ = 341 nm versus [L] was fitted to a one-site specific binding equation using GraphPad Prism 5 software: ΔFemission = Fmax × [L]/(KD + [L]).

Sequence of ^MtbLcp1 (P96872 entry or part of it): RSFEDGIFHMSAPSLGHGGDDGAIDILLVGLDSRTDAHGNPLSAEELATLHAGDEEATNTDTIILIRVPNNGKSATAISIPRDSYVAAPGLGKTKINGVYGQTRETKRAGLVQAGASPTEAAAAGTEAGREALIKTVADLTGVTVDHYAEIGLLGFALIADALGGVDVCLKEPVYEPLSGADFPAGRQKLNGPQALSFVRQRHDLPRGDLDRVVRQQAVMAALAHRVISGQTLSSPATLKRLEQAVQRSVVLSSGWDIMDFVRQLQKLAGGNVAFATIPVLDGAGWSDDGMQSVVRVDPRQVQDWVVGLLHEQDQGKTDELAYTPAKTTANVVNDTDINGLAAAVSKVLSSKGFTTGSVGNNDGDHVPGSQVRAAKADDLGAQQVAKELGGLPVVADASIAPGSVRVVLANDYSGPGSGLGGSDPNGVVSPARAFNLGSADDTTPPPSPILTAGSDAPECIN

| SMILES | Bmax | Kd | binding affinity toward ^MtbLcp1 in words (ITF assays, above background fluorescence) | fold increase in affinity (tetrasaccharide ligand versus linker unit disaccharide (compound 1)) | fold decrease in binding affinity (additional Galf residue, versus compound 2) [fold] |
| --- | --- | --- | --- | --- | --- |
| CCCCCCCCO[C@H]1O[C@H](CO)[C@@H](O)[C@H](O[C@@H]2O[C@@H](C)[C@H](O)[C@@H](O)[C@H]2O)[C@H]1NC(C)=O [compound 1, octyl α-L-rhamnopyranosyl-(1→3)-2-acetamido-2-deoxy-α-D-glucopyranoside] | 1448 | 57.7 µM | – | – | – |
| CCCCCCCCOC1OC(C)C(OC2OC(C(O)CO)C(O)C2O)C(O)C1O [compound 4, D-Galf-β(1→4)-L-Rhap] | 177 and ~ 177.6 | 97.6 µM and ~97.6 µM | no significant binding affinity (above background); also recorded: no recordable affinity | – | – |
| CCCCCCCCOC1OC(CO)C(O)C(OC2OC(C)C(OC3OC(C(CO)OC4OC(C(O)CO)C(O)C4O)C(O)C3O)C(O)C2O)C1NC(C)=O [compound 2, octyl-β-D-galactofuranosyl-(1→5)-β-D-galactofuranosyl-(1→4)-α-L-rhamnopyranosyl-(1→3)-2-acetamido-2-deoxy-α-D-glucopyranoside] | 1585 | 5.13 µM | – | ~ 10 fold | – |
| CCCCCCCCOC1OC(CO)C(O)C(OC2OC(C)C(OC3OC(C(CO)OC4OC(C(O)COC5OC(C(O)CO)C(O)C5O)C(O)C4O)C(O)C3O)C(O)C2O)C1NC(C)=O [compound 3, octyl-β-D-galactofuranosyl-(1→6)-β-D-galactofuranosyl-(1→5)-β-D-galactofuranosyl-(1→4)-α-L-rhamnopyranosyl-(1→3)-2-acetamido-2-deoxy-α-D-glucopyranoside] | 1498 | 20.4 µM | – | – | 4 |
